Reference: PubChem BioAssay AID1963844 (Molecular Pharmacology Branch, DTP, NCI, 2024)

System: 422866-222-R5-J1-PDC complex spheroid viability
Experiment: Anticancer human tumor 422866-222-R5-J1-PDC patient-derived pancreatic adenocarcinoma cell line growth inhibition [POLQ]
Settings: for IC50: curve of first compound; for viability, T/C: stronger effect = lower value
Summary of the method: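 Patient-derived tumour cells were co-cultured with HUVEC and mesenchymal stem cells as multicellular spheroids at 37 °C. They were treated with POLQ inhibitors (novobiocin, ART-558, RP6685) alone or combined with other agents. Top concentrations were at or near clinical Cmax (otherwise 10 microM; SN-38 at 1 microM), decreasing in half-log steps.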

[1] = second compound 0.0316 µM, first compound 0.0316 µM
[2] = second compound 0.0316 µM, first compound 0.1 µM
[3] = second compound 0.0316 µM, first compound 0.316 µM
[4] = second compound 0.0316 µM, first compound 1 µM
[5] = second compound 0.0316 µM, first compound 3.16 µM
[6] = second compound 0.0316 µM, first compound 10 µM
[7] = second compound 0.1 µM, first compound 0.0316 µM
[8] = second compound 0.1 µM, first compound 0.1 µM
[9] = second compound 0.1 µM, first compound 0.316 µM
[10] = second compound 0.1 µM, first compound 1 µM
[11] = second compound 0.1 µM, first compound 3.16 µM
[12] = second compound 0.1 µM, first compound 10 µM
[13] = second compound 0.316 µM, first compound 0.0316 µM
[14] = second compound 0.316 µM, first compound 0.1 µM
[15] = second compound 0.316 µM, first compound 0.316 µM
[16] = second compound 0.316 µM, first compound 1 µM
[17] = second compound 0.316 µM, first compound 3.16 µM
[18] = second compound 0.316 µM, first compound 10 µM
[19] = second compound 1 µM, first compound 0.0316 µM
[20] = second compound 1 µM, first compound 0.1 µM
[21] = second compound 1 µM, first compound 0.316 µM
[22] = second compound 1 µM, first compound 1 µM
[23] = second compound 1 µM, first compound 3.16 µM
[24] = second compound 1 µM, first compound 10 µM
[25] = second compound 3.16 µM, first compound 0.0316 µM
[26] = second compound 3.16 µM, first compound 0.1 µM
[27] = second compound 3.16 µM, first compound 0.316 µM
[28] = second compound 3.16 µM, first compound 1 µM
[29] = second compound 3.16 µM, first compound 3.16 µM
[30] = second compound 3.16 µM, first compound 10 µM
[31] = second compound 10 µM, first compound 0.0316 µM
[32] = second compound 10 µM, first compound 0.1 µM
[33] = second compound 10 µM, first compound 0.316 µM
[34] = second compound 10 µM, first compound 1 µM
[35] = second compound 10 µM, first compound 3.16 µM
[36] = second compound 10 µM, first compound 10 µM
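Also: spheroids exposed to compounds for one week before readout.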
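For viability, T/C in this document: percent of DMSO vehicle wells luminescence so 100% = untreated viability.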

Nc1ccn(C2OC(CO)C(O)C2(F)F)c(=O)n1 (stereo not drawn) + Cc1cccc(N(C)C(=O)C2C(O)CCN2c2nc(C)cc(C(F)(F)F)c2C#N)c1
IC50 (second compound 0.0316 µM): 98.9 nM | IC50 (second compound 0.1 µM): 76.6 nM | IC50 (second compound 0.316 µM): 82.4 nM | IC50 (second compound 1 µM): 119 nM | IC50 (second compound 3.16 µM): 154 nM | IC50 (second compound 10 µM): 120 nM | viability, T/C [1]: 77.9% | viability, T/C [2]: 50.4% | viability, T/C [3]: 40.4% | viability, T/C [4]: 36.1% | viability, T/C [5]: 36.1% | viability, T/C [6]: 42.9% | viability, T/C [7]: 68.8% | viability, T/C [8]: 43.2% | viability, T/C [9]: 40.5% | viability, T/C [10]: 38.6% | viability, T/C [11]: 35.5% | viability, T/C [12]: 35.4% | viability, T/C [13]: 69% | viability, T/C [14]: 45.3% | viability, T/C [15]: 40.3% | viability, T/C [16]: 38.1% | viability, T/C [17]: 35% | viability, T/C [18]: 34.8% | viability, T/C [19]: 68.7% | viability, T/C [20]: 51.6% | viability, T/C [21]: 41.4% | viability, T/C [22]: 37.3% | viability, T/C [23]: 38.6% | viability, T/C [24]: 40.2% | viability, T/C [25]: 83.7% | viability, T/C [26]: 54.2% | viability, T/C [27]: 41.9% | viability, T/C [28]: 43.2% | viability, T/C [29]: 37.8% | viability, T/C [30]: 38% | viability, T/C [31]: 68% | viability, T/C [32]: 51.9% | viability, T/C [33]: 45.2% | viability, T/C [34]: 39.9% | viability, T/C [35]: 38.9% | viability, T/C [36]: 48.5%

CCc1cc2c(N3CCc4c(cc(Cn5ccnc5)cc4-c4cn(C)nc4C(F)(F)F)C3=O)cc(C)nc2c(OC)n1 + Nc1ccc(C#CCN(C(=O)Cc2ncc(C(F)(F)F)cc2C(F)(F)F)c2ccc(F)cc2)nn1
IC50 (second compound 0.0316 µM): > 10000 nM | IC50 (second compound 0.1 µM): > 10000 nM | IC50 (second compound 0.316 µM): > 10000 nM | IC50 (second compound 1 µM): > 10000 nM | IC50 (second compound 3.16 µM): > 10000 nM | IC50 (second compound 10 µM): > 10000 nM | viability, T/C [1]: 79.3% | viability, T/C [2]: 88.6% | viability, T/C [3]: 96% | viability, T/C [4]: 115% | viability, T/C [5]: 103% | viability, T/C [6]: 95.5% | viability, T/C [7]: 105% | viability, T/C [8]: 97.4% | viability, T/C [9]: 102% | viability, T/C [10]: 87.1% | viability, T/C [11]: 98.7% | viability, T/C [12]: 99.7% | viability, T/C [13]: 99.5% | viability, T/C [14]: 86.3% | viability, T/C [15]: 94.8% | viability, T/C [16]: 88.3% | viability, T/C [17]: 118% | viability, T/C [18]: 100% | viability, T/C [19]: 95.6% | viability, T/C [20]: 75% | viability, T/C [21]: 87.7% | viability, T/C [22]: 99.7% | viability, T/C [23]: 94.9% | viability, T/C [24]: 96.2% | viability, T/C [25]: 81.2% | viability, T/C [26]: 93.6% | viability, T/C [27]: 95.2% | viability, T/C [28]: 99.2% | viability, T/C [29]: 122% | viability, T/C [30]: 107% | viability, T/C [31]: 102% | viability, T/C [32]: 112% | viability, T/C [33]: 106% | viability, T/C [34]: 83.7% | viability, T/C [35]: 102% | viability, T/C [36]: 113%

CCc1cc2c(N3CCc4c(cc(Cn5ccnc5)cc4-c4cn(C)nc4C(F)(F)F)C3=O)ccnc2c(OC)n1 + COC1C(OC(N)=O)C(O)C(Oc2ccc3c(O)c(NC(=O)c4ccc(O)c(CC=C(C)C)c4)c(=O)oc3c2C)OC1(C)C
IC50 (second compound 0.0316 µM): > 10000 nM | IC50 (second compound 0.1 µM): > 10000 nM | IC50 (second compound 0.316 µM): > 10000 nM | IC50 (second compound 1 µM): > 10000 nM | IC50 (second compound 3.16 µM): > 10000 nM | IC50 (second compound 10 µM): > 10000 nM | viability, T/C [1]: 95.3% | viability, T/C [2]: 92.8% | viability, T/C [3]: 108% | viability, T/C [4]: 119% | viability, T/C [5]: 113% | viability, T/C [6]: 116% | viability, T/C [7]: 92.8% | viability, T/C [8]: 108% | viability, T/C [9]: 116% | viability, T/C [10]: 104% | viability, T/C [11]: 110% | viability, T/C [12]: 111% | viability, T/C [13]: 104% | viability, T/C [14]: 91% | viability, T/C [15]: 92.2% | viability, T/C [16]: 101% | viability, T/C [17]: 112% | viability, T/C [18]: 124% | viability, T/C [19]: 86.6% | viability, T/C [20]: 91.4% | viability, T/C [21]: 102% | viability, T/C [22]: 100% | viability, T/C [23]: 115% | viability, T/C [24]: 124% | viability, T/C [25]: 91.9% | viability, T/C [26]: 105% | viability, T/C [27]: 129% | viability, T/C [28]: 114% | viability, T/C [29]: 105% | viability, T/C [30]: 114% | viability, T/C [31]: 93% | viability, T/C [32]: 98.1% | viability, T/C [33]: 105% | viability, T/C [34]: 109% | viability, T/C [35]: 105% | viability, T/C [36]: 122%

C=CCn1c(=O)c2cnc(Nc3ccc(N4CCN(C)CC4)cc3)nc2n1-c1cccc(C(C)(C)O)n1 + Cc1cccc(N(C)C(=O)C2C(O)CCN2c2nc(C)cc(C(F)(F)F)c2C#N)c1
IC50 (second compound 0.0316 µM): 298 nM | IC50 (second compound 0.1 µM): 289 nM | IC50 (second compound 0.316 µM): 299 nM | IC50 (second compound 1 µM): 257 nM | IC50 (second compound 3.16 µM): 423 nM | IC50 (second compound 10 µM): 277 nM | viability, T/C (second compound 0.0316 µM, first compound 0.00316 µM): 107% | viability, T/C (second compound 0.0316 µM, first compound 0.01 µM): 96.1% | viability, T/C [1]: 110% | viability, T/C [2]: 89.1% | viability, T/C [3]: 48.4% | viability, T/C [4]: 33.3% | viability, T/C (second compound 0.1 µM, first compound 0.00316 µM): 93% | viability, T/C (second compound 0.1 µM, first compound 0.01 µM): 93.8% | viability, T/C [7]: 101% | viability, T/C [8]: 85.8% | viability, T/C [9]: 47.1% | viability, T/C [10]: 35.1% | viability, T/C (second compound 0.316 µM, first compound 0.00316 µM): 108% | viability, T/C (second compound 0.316 µM, first compound 0.01 µM): 97.3% | viability, T/C [13]: 105% | viability, T/C [14]: 97.1% | viability, T/C [15]: 47.5% | viability, T/C [16]: 31.3% | viability, T/C (second compound 1 µM, first compound 0.00316 µM): 110% | viability, T/C (second compound 1 µM, first compound 0.01 µM): 85.1% | viability, T/C [19]: 104% | viability, T/C [20]: 83.8% | viability, T/C [21]: 42.8% | viability, T/C [22]: 32.3% | viability, T/C (second compound 3.16 µM, first compound 0.00316 µM): 98.4% | viability, T/C (second compound 3.16 µM, first compound 0.01 µM): 87.2% | viability, T/C [25]: 91.6% | viability, T/C [26]: 100% | viability, T/C [27]: 54.8% | viability, T/C [28]: 35.7% | viability, T/C (second compound 10 µM, first compound 0.00316 µM): 104% | viability, T/C (second compound 10 µM, first compound 0.01 µM): 95.8% | viability, T/C [31]: 97.3% | viability, T/C [32]: 75.3% | viability, T/C [33]: 46.6% | viability, T/C [34]: 40.4%
